{"source": "patent US11458189B2", "about": "“Cytoprotective drugs” (BALMES TRANSPLANTATION, priority 2017, dated 2022)", "tested_on": "Human Astrocytes (HA)", "assay": "Oxygen and glucose deprivation followed by replenishment, cell survival (calcein AM), HA", "format": "cell-based", "experimental": "Anidulafungin and micafungin were tested on Human Renal Glomerular Endothelial Cells (HRGEC, Innoprot P10665), on Human Renal Proximal Tubular Epithelial Cells (HRPTEpiC, Innoprot P10662), on Human Astrocytes (HA, caltag SC-1800), on Human Cardiac Microvascular Endothelial Cells (HCMEC, Caltag SC-6000), on Human Hepatic Sinusoidal Endothelial Cells (HHSEC, Caltag SC-5000), on Rat Primary Kidney Glomerular Endothelial cells (Cellbiologics, RN-6014G) and on Bovine Brain Microvascular Endothelial Cells (BBMEC, Caltag SC-B100).\nIn a first phase, these isolated, purified and cryopreserved cells are thawed and multiplied according to the supplier's recommendations in T75 or T175 flasks pre-coated with 2 μg of fibronectin/[…] (CORNING) for HRGEC, HCMEC, HHSEC and BBMEC, or 2 μg poly-L-lysin/cm^2 (Caltag SC-0403) for HRPTEpiC and HA, or 15 mL/flask 175 cm^2 gelatin-based solution (Cellbiologics) in the presence of endothelial cell supplemented growth medium ECM (P60104, INNOPROT, Caltag, SC-1001) for HRGEC, HCMEC, HHSEC, RPKGEC or BBMEC, or astrocyte cell supplemented growth medium AM (Caltag SC-1801) for HA or epithelial cell supplemented growth medium EpiCM (P60106, INNOPROT) for HRPTEpiC, at 37° C. under 5% CO2 and saturated humidity until their confluency. They are then harvested by trypsinization according to the method described by the supplier for exactly 5 minutes and then reseeded in new flasks a maximum of three times.\nTo carry out the oxygen and glucose deprivation test followed by their replenishment, the cells will be seeded in 96-well black plates with transparent flat bottom (GREINER). Once a sufficient number of cells has been obtained to allow seeding of 2000 to 15000 cells per well of 96-well plates depending on the cell type, the cells are seeded in these 96-well plates previously coated with an extracellular matrix as listed above for the flasks. The cells are cultured for 5 to 8 days according to the cell type, in the presence of the same growth medium as in the flask as described above except for HRGEC and HRPTEpiC for which DMEM (DUTSCHER) with 1 g/L of supplemented glucose is used, at 37° C. under 5% CO2 and saturated humidity to obtain confluency.\nOn the first day of oxygen and glucose deprivation, (5th, 6th, 7th or 8th day of culture), the culture conditions are drastically changed. The medium of all plates is removed and replaced by DMEM (DUTSCHER) medium without glucose and supplemented only with 1% penicillin-streptomycin (DUTSCHER). Anidulafungin or micafungin dissolved in dimethyl sulfoxide (DMSO) is then added to each well at the desired concentration, resulting in a maximum of 1% DMSO, and the plates are placed under hypoxia at <1% 02 and 5% CO2 at 37° C. for 24 hours of culture. Each compound was tested in a concentration range.\nAfter 24 hours, the growth medium is changed and replaced by a richer medium, DMEM (DUTSCHER) at 1 g/L glucose and 2% FBS (INNOPROT) and 1% penicillin-streptomycin (DUTSCHER). These media will have been pre-equilibrated at 37° C. in advance. The cells are then returned to culture at 37° C. under 20% 02 and 5% CO2 for 22h.\nAfter 22 hours of reoxygenation, the potential protective effect of anidulafungin or micafungin is measured by a cell viability test using calcein AM (CORNING), which is a dye substrate. The calcein AM can easily cross the cell membrane of the viable cells. The AM ester groups mask the part of the molecule that chelates calcium. Once inside the cells, the (non-fluorescent) calcein AM is hydrolyzed to (fluorescent) calcein by endogenous esterases. The resulting calcein molecule binds to calcium inside the cell and remains trapped inside the cell. These molecules emit strong green fluorescence when subjected to […] of a particular wavelength (495 nm). Since dead cells lack esterase activity, only living cells are labelled.\nThis cell viability test is performed in two steps. […]", "key": {"[1]": {"conditions": "[Anidulafungin] log μM 0.1760913"}, "[2]": {"conditions": "[Anidulafungin] log μM 0.7781513"}, "[3]": {"conditions": "[Anidulafungin] log μM −0.1249387"}, "[4]": {"conditions": "[Anidulafungin] log μM −0.30103"}, "[5]": {"conditions": "[Anidulafungin] log μM −0.5228788"}}, "note": "Starred links: 1 amine or outer side, 2 acyl side, 3 side chain; linkers in the order of their positions; H or OH if unused. Positions of bridges follow the written chain, without caps; N, C: chain ends. Non-standard residues stand in square brackets, D forms with d. Residues, ends and D or L forms follow the SMILES beside them. ξ: configuration not given here. *: point of attachment. pTerphenylCO(4''-OnC5H11) = CCCCCOc1ccc(-c2ccc(-c3ccc(C(=O)*)cc3)cc2)cc1; Orn(4R-OH,5R-OH) = O=C([C@H](C[C@@H](O)[C@@H](O)N[*:3])N[*:1])[*:2]; hTyr(3S-OH,4S-OH) = N[C@H](C(=O)O)[C@H](O)[C@@H](O)c1ccc(O)cc1; Pro(3S-OH,4S-Me) = C[C@H]1CN[C@H](C(=O)O)[C@H]1O; ξPro(4R-OH) = O=C(O)C1C[C@@H](O)CN1"}
{"smiles": "CCCCCOc1ccc(-c2ccc(-c3ccc(C(=O)N[C@H]4C[C@@H](O)[C@@H](O)NC(=O)[C@@H]5[C@@H](O)[C@@H](C)CN5C(=O)[C@H]([C@@H](C)O)NC(=O)[C@H]([C@H](O)[C@@H](O)c5ccc(O)cc5)NC(=O)C5C[C@@H](O)CN5C(=O)[C@H]([C@@H](C)O)NC4=O)cc3)cc2)cc1", "note": "(stereo partly drawn) [Anidulafungin] ({pTerphenylCO(4''-OnC5H11)}-[Orn(4R-OH,5R-OH)]T[ξPro(4R-OH)][hTyr(3S-OH,4S-OH)]T[Pro(3S-OH,4S-Me)]; lactam 1-C)", "values": [{"measurement": "Globalfluo assay 1", "setting": "[Anidulafungin] log μM 0", "value": 11468420, "unit": "arbitrary units"}, {"measurement": "Globalfluo assay 2", "setting": "[Anidulafungin] log μM 0", "value": 12221770, "unit": "arbitrary units"}, {"measurement": "Globalfluo assay 3", "setting": "[Anidulafungin] log μM 0", "value": 14645590, "unit": "arbitrary units"}, {"measurement": "Mean globalfluo", "setting": "[Anidulafungin] log μM 0", "value": 12778593, "unit": "arbitrary units"}, {"measurement": "Survival rate (%)", "setting": "[Anidulafungin] log μM 0", "value": 15, "unit": "%"}, {"measurement": "Globalfluo assay 1", "setting": "[1]", "value": 11838960, "unit": "arbitrary units"}, {"measurement": "Globalfluo assay 2", "setting": "[1]", "value": 12087610, "unit": "arbitrary units"}, {"measurement": "Globalfluo assay 3", "setting": "[1]", "value": 13326480, "unit": "arbitrary units"}, {"measurement": "Mean globalfluo", "setting": "[1]", "value": 12417683, "unit": "arbitrary units"}, {"measurement": "Survival rate (%)", "setting": "[1]", "value": 13, "unit": "%"}, {"measurement": "Globalfluo assay 1", "setting": "[Anidulafungin] log μM 0.30103", "value": 13177930, "unit": "arbitrary units"}, {"measurement": "Globalfluo assay 2", "setting": "[Anidulafungin] log μM 0.30103", "value": 13103050, "unit": "arbitrary units"}, {"measurement": "Globalfluo assay 3", "setting": "[Anidulafungin] log μM 0.30103", "value": 13640130, "unit": "arbitrary units"}, {"measurement": "Mean globalfluo", "setting": "[Anidulafungin] log μM 0.30103", "value": 13307037, "unit": "arbitrary units"}, {"measurement": "Survival rate (%)", "setting": "[Anidulafungin] log μM 0.30103", "value": 18, "unit": "%"}, {"measurement": "Globalfluo assay 1", "setting": "[Anidulafungin] log μM 0.60206", "value": 12006890, "unit": "arbitrary units"}, {"measurement": "Globalfluo assay 2", "setting": "[Anidulafungin] log μM 0.60206", "value": 13270810, "unit": "arbitrary units"}, {"measurement": "Globalfluo assay 3", "setting": "[Anidulafungin] log μM 0.60206", "value": 14798310, "unit": "arbitrary units"}, {"measurement": "Mean globalfluo", "setting": "[Anidulafungin] log μM 0.60206", "value": 13358670, "unit": "arbitrary units"}, {"measurement": "Survival rate (%)", "setting": "[Anidulafungin] log μM 0.60206", "value": 18, "unit": "%"}, {"measurement": "Globalfluo assay 1", "setting": "[2]", "value": 14108250, "unit": "arbitrary units"}, {"measurement": "Globalfluo assay 2", "setting": "[2]", "value": 14242150, "unit": "arbitrary units"}, {"measurement": "Globalfluo assay 3", "setting": "[2]", "value": 13880120, "unit": "arbitrary units"}, {"measurement": "Mean globalfluo", "setting": "[2]", "value": 14076840, "unit": "arbitrary units"}, {"measurement": "Survival rate (%)", "setting": "[2]", "value": 22, "unit": "%"}, {"measurement": "Globalfluo assay 1", "setting": "[Anidulafungin] log μM 0.90309", "value": 13394210, "unit": "arbitrary units"}, {"measurement": "Globalfluo assay 2", "setting": "[Anidulafungin] log μM 0.90309", "value": 14898570, "unit": "arbitrary units"}, {"measurement": "Globalfluo assay 3", "setting": "[Anidulafungin] log μM 0.90309", "value": 14923380, "unit": "arbitrary units"}, {"measurement": "Mean globalfluo", "setting": "[Anidulafungin] log μM 0.90309", "value": 14405387, "unit": "arbitrary units"}, {"measurement": "Survival rate (%)", "setting": "[Anidulafungin] log μM 0.90309", "value": 24, "unit": "%"}, {"measurement": "Globalfluo assay 1", "setting": "[3]", "value": 9674527, "unit": "arbitrary units"}, {"measurement": "Globalfluo assay 2", "setting": "[3]", "value": 11462560, "unit": "arbitrary units"}, {"measurement": "Globalfluo assay 3", "setting": "[3]", "value": 11240740, "unit": "arbitrary units"}, {"measurement": "Mean globalfluo", "setting": "[3]", "value": 10792609, "unit": "arbitrary units"}, {"measurement": "Survival rate (%)", "setting": "[3]", "value": 4, "unit": "%"}, {"measurement": "Globalfluo assay 1", "setting": "[4]", "value": 12822290, "unit": "arbitrary units"}, {"measurement": "Globalfluo assay 2", "setting": "[4]", "value": 11197900, "unit": "arbitrary units"}, {"measurement": "Globalfluo assay 3", "setting": "[4]", "value": 11873360, "unit": "arbitrary units"}, {"measurement": "Mean globalfluo", "setting": "[4]", "value": 11964517, "unit": "arbitrary units"}, {"measurement": "Survival rate (%)", "setting": "[4]", "value": 10, "unit": "%"}, {"measurement": "Globalfluo assay 1", "setting": "[5]", "value": 11050980, "unit": "arbitrary units"}, {"measurement": "Globalfluo assay 2", "setting": "[5]", "value": 10353030, "unit": "arbitrary units"}, {"measurement": "Globalfluo assay 3", "setting": "[5]", "value": 11612880, "unit": "arbitrary units"}, {"measurement": "Mean globalfluo", "setting": "[5]", "value": 11005630, "unit": "arbitrary units"}, {"measurement": "Survival rate (%)", "setting": "[5]", "value": 5, "unit": "%"}, {"measurement": "Globalfluo assay 1", "setting": "[Anidulafungin] log μM −1", "value": 9709693, "unit": "arbitrary units"}, {"measurement": "Globalfluo assay 2", "setting": "[Anidulafungin] log μM −1", "value": 10543570, "unit": "arbitrary units"}, {"measurement": "Globalfluo assay 3", "setting": "[Anidulafungin] log μM −1", "value": 12170290, "unit": "arbitrary units"}, {"measurement": "Mean globalfluo", "setting": "[Anidulafungin] log μM −1", "value": 10807851, "unit": "arbitrary units"}, {"measurement": "Survival rate (%)", "setting": "[Anidulafungin] log μM −1", "value": 4, "unit": "%"}, {"measurement": "Globalfluo assay 1", "setting": "[Anidulafungin] log μM −2", "value": 10301450, "unit": "arbitrary units"}, {"measurement": "Globalfluo assay 2", "setting": "[Anidulafungin] log μM −2", "value": 9760112, "unit": "arbitrary units"}, {"measurement": "Globalfluo assay 3", "setting": "[Anidulafungin] log μM −2", "value": 11132460, "unit": "arbitrary units"}, {"measurement": "Mean globalfluo", "setting": "[Anidulafungin] log μM −2", "value": 10398007, "unit": "arbitrary units"}, {"measurement": "Survival rate (%)", "setting": "[Anidulafungin] log μM −2", "value": 2, "unit": "%"}]}
